The source of these data is PMC8605905 (Oxidative Medicine and Cellular Longevity, 2021).

“Also recorded” adds a separate entry of the source.

Holding throughout (assay type): cell-based, Human
Assay [1] concerns CRE-GFP 293 cells. In words: CRE-GFP 293 reporter cell assay (flow cytometry). To be noted: for Effect of kinase inhibitor on LM-021-activated GFP levels: inhibitor 10 μM 4 h before LM-021 10 μM, presence or absence of Ca2+ ionophore. From the text:
Using the pCRE-MetLuc2-Reporter plasmid (Clontech, Mountain View, CA, USA) as a template, the DNA fragment containing the cAMP response element (CRE) motifs and TATA-like promoter (PTAL) flanked by MluI and AgeI restriction sites was amplified by PCR using sense ([…], MluI site underlined) and antisense ([…], AgeI site underlined) primers. The amplified CRE-PTAL promoter fragment was cloned into pGEM-T Easy (Promega, Madison, WI, USA) and sequenced. The CRE-PTAL-containing MluI/AgeI fragment and GFP-containing AgeI/NotI fragment (from pEGFP-N1; Clontech) were subcloned into MluI- and NotI-digested pcDNA5/FRT/TO (Novagen, Madison, WI, USA). The resulting construct with CRE-PTAL-driving GFP was used to establish 293 GFP reporter cells by targeting insertion into Flp-In-293 cells according to the supplier's instructions (Invitrogen). The cells were grown in a medium containing 5 μg/ml blasticidin and 100 μg/ml hygromycin.
On day 1, CRE-GFP 293 cells were seeded into 48-well plates (5 × 10^4/well). After 24 h, cells were treated with Ca^2+ ionophore (2 μM) (Sigma-Aldrich) for 0–24 h. Cell viability was measured using 3,(4,5-dimethylthiazol-2-yl)-2,5-diphenyltetrazolium bromide (MTT) assay (Sigma-Aldrich). The absorbance of the insoluble purple formazan dye was quantified at 570 nm on a μQuant microplate spectrophotometer (Bio-Tek). In addition, the cells were treated with the Ca^2+ ionophore A23187 (0.5–10 μM) (Sigma-Aldrich) for 5 h, followed by analysis of GFP fluorescence by flow cytometry (Becton–Dickinson, Franklin Lakes, NJ, USA) with excitation/emission wavelengths at 488/507 nm. To monitor CREB activation, cells were treated with forskolin or coumarin-chalcone derivatives (5–10 μM) in the presence or absence of Ca^2+ ionophore (2 μM) for 5 h, and GFP fluorescence was analysed.
(§1) To monitor the cAMP-mediated signal transduction pathway, CRE-GFP 293 cells in 6-well plates (1 × 10^6/well) were pretreated with kinase inhibitor H-89 (LC Laboratories, Woburn, MA, USA), KN-62 (Cayman Chemical, Ann Arbor, MI, USA), U0126 (LC Laboratories), or wortmannin (LC Laboratories) (10 μM) for 4 h before forskolin or LM-021 (10 μM) addition for 5 h. GFP fluorescence/protein and total/phosphorylated PKA, CaMKII, ERK, PI3K, and CREB levels were examined. In addition, Aβ-GFP or ∆K280 tauRD-DsRed SH-SY5Y cells were treated with retinoic acid (10 μM) on day 1, followed by the addition of LM-021 (5 or 10 μM) and doxycycline (5 or 2 μg/ml) on day 2, as described. Kinase inhibitors (10 μM) were added on day 6. On day 8, the cells were collected for protein expression analysis of BDNF, BCL2 (BCL2 apoptosis regulator), and BAX (BCL2 associated X, apoptosis regulator), and total/phosphorylated PKA, CaMKII, ERK, PI3K, and CREB. Also, cells were stained with DAPI and assessed for neurite outgrowth as described above.
For orientation: In flow cytometry, cells or beads pass a laser one at a time.

For assay [2], the system named is Aβ-GFP SH-SY5Y cells. Put plainly: High content analysis of neurite outgrowth in Aβ-GFP cells. To be noted: inhibitor 10 μM on day 6, LM-021 5 μM. As for the experimental part:
(§2) On day 1, Aβ-GFP or ∆K280 tauRD-DsRed SH-SY5Y cells were plated into 24-well plates (6 × 10^4/well) followed by addition of retinoic acid. On day 2, cells were treated with coumarin-chalcone derivatives (5 or 10 μM) and with doxycycline (5 or 2 μg/ml) to induce the expression of Aβ-GFP or ∆K280 tauRD-DsRed. On day 8, 4% paraformaldehyde, 0.1% Triton X-100, and 3% BSA were used to fix, permeabilize, and block cells, respectively. Subsequently, the cells were stained with TUBB3 (neuronal class III β-tubulin) primary antibody (1 : 1000; Covance, Princeton, NJ, USA) at 4°C overnight. Goat anti-rabbit Alexa Fluor 555 secondary antibody (1 : 1000; Thermo Fisher Scientific) was then added, followed by a 3 h incubation at room temperature. Following staining nuclei with 4′,-6-diamidino-2-phenylindole (DAPI) (0.1 μg/ml; Sigma-Aldrich), the neurons were imaged by using the HCA system and analysed by using the Neurite Outgrowth Application Module (MetaXpress; Molecular Devices).
as §1

For assay [3], the system named is ∆K280 tauRD-DsRed SH-SY5Y cells. Put plainly: High content analysis of neurite outgrowth in ΔK280 tauRD-DsRed cells. The following applies: inhibitor 10 μM on day 6, LM-021 10 μM. As for the experimental part: as §2, §1
Assay [4] concerns CRE-GFP 293 cells. In words: Western blot in CRE-GFP 293 cells. To be noted: inhibitor 10 μM, LM-021 10 μM, without Ca2+ ionophore, immunoblot. The procedure: as §1
Total proteins from CRE-GFP 293 and Aβ-GFP, ∆K280 tauRD-DsRed SH-SY5Y cells were extracted using lysis buffer (50 mM Tris-HCl (pH 8.0), 150 mM NaCl, 1 mM EDTA (pH 8.0), 1 mM EGTA (pH 8.0), 0.1% SDS, 0.5% sodium deoxycholate, 1% Triton X-100) containing phosphatase and protease inhibitor cocktails (Sigma-Aldrich). Protein concentrations were measured using a protein assay kit (Bio-Rad, Hercules, CA, USA), and 20 μg of proteins was separated with 10% SDS-PAGE and blotted onto polyvinylidene difluoride (PVDF) membranes (Sigma-Aldrich). […]
For orientation: Immunoblotting shows a protein as a band on a membrane.

Assay [5] relates to Aβ-GFP SH-SY5Y cells. Put plainly: Western blot in Aβ-GFP SH-SY5Y cells. The following applies: inhibitor 10 μM on day 6, LM-021 5 μM. The procedure:
as §1
(§3) Total proteins from CRE-GFP 293 and Aβ-GFP, ∆K280 tauRD-DsRed SH-SY5Y cells were extracted using lysis buffer (50 mM Tris-HCl (pH 8.0), 150 mM NaCl, 1 mM EDTA (pH 8.0), 1 mM EGTA (pH 8.0), 0.1% SDS, 0.5% sodium deoxycholate, 1% Triton X-100) containing phosphatase and protease inhibitor cocktails (Sigma-Aldrich). Protein concentrations were measured using a protein assay kit (Bio-Rad, Hercules, CA, USA), and 20 μg of proteins was separated with 10% SDS-PAGE and blotted onto polyvinylidene difluoride (PVDF) membranes (Sigma-Aldrich). After blocking, the membrane blot was incubated with primary antibody against GFP (1 : 500; Santa Cruz Biotechnology, Santa Cruz, CA, USA), PKA (1 : 1000; R&D Systems, Minneapolis, MN, USA), p-PKA (T197) (1 : 1000; Cell Signaling, Danvers, MA, USA), ERK (1 : 500; Cell Signaling), p-ERK (T202/Y204) (1 : 500; Cell Signaling), CaMKII (1 : 1000; Santa Cruz Biotechnology), p-CaMKII (T286) (1 : 1000; Cell Signaling), CREB (1 : 1000; Santa Cruz Biotechnology), p-CREB (S133) (1 : 1000; Millipore, Billerica, MA, USA), BDNF (1 : 500; Santa Cruz Biotechnology), BCL2 (1 : 500; BioVision), BAX (1 : 500; BioVision), GAPDH (glyceraldehyde-3-phosphate dehydrogenase, as a loading control) (1 : 1000; MDBio, Taipei, Taiwan), or β-tubulin (1 : 1000, Sigma-Aldrich, as a loading control). The immune complexes were visualized using horseradish peroxidase-conjugated goat anti-mouse or goat anti-rabbit IgG antibody (1 : 5000, GeneTex, Irvine, CA, USA) and a chemiluminescent substrate (Millipore).

For assay [6], the system named is ∆K280 tauRD-DsRed SH-SY5Y cells. Put plainly: Western blot in ΔK280 tauRD-DsRed SH-SY5Y cells. To be noted: inhibitor 10 μM on day 6, LM-021 10 μM. The procedure:
as §1, §3

Regarding `O=S(=O)(NCCNC/C=C/c1ccc(Br)cc1)c1cccc2cnccc12` [H-89], the “Effect of kinase inhibitor on LM-021-activated GFP levels” value in assay [1] is “attenuated the GFP levels”. Further, the “Effect of kinase inhibitor on forskolin-activated GFP level” value in assay [1] (inhibitor 10 μM 4 h before forskolin 10 μM, presence of Ca2+ ionophore) was “attenuated the GFP level”. Further, in assay [2], the “Effect of kinase inhibitor on LM-021-improved neurite length, processes, and branches” value (shortened to “Effect of kinase inhibitor … and branches”) was “counteracted these improvements”. Further, the “Effect of kinase inhibitor on LM-021-ameliorated neurite length and branch length” value in assay [3] is reported as “reversed these effects”. The “Effect of kinase inhibitor on increased p-CREB and GFP protein levels” value in assay [4] was “significantly reduced”. In addition, in assay [5], the “Effect of kinase inhibitor on LM-021-upregulated kinase phosphorylation” value is “mitigated the increase of p-PKA”; the “Effect of kinase inhibitor on LM-021 increase in p-CREB, pro-BDNF, m-BDNF, and BCL2” value is reported as “attenuated the increase”. In assay [6], the “Effect of kinase inhibitor on LM-021-upregulated kinase phosphorylation” value is “reduced the upregulation of p-PKA”; the “Effect of kinase inhibitor on LM-021 upregulation of p-CREB, pro-BDNF, m-BDNF, and BCL2” value is reported as “attenuated the upregulation”.

As for `CN([C@@H](Cc1ccc(OS(=O)(=O)c2cccc3cnccc23)cc1)C(=O)N1CCN(c2ccccc2)CC1)S(=O)(=O)c1cccc2cnccc12` [KN-62], the “Effect of kinase inhibitor on LM-021-activated GFP levels” value in assay [1] is listed as “attenuated the GFP levels”. Moreover, the “Effect of kinase inhibitor … and branches” value in assay [2] is reported as “counteracted these improvements”. Besides, the “Effect of kinase inhibitor on LM-021-ameliorated neurite length and branch length” value in assay [3] is recorded as “reversed these effects”. Also, the “Effect of kinase inhibitor on increased p-CREB and GFP protein levels” value in assay [4] is recorded as “significantly reduced”. In addition, in assay [5], the “Effect of kinase inhibitor on LM-021-upregulated kinase phosphorylation” value is “mitigated the upregulation of p-CaMKII; also recorded: normalized p-ERK”; the “Effect of kinase inhibitor on LM-021 increase in p-CREB, pro-BDNF, m-BDNF, and BCL2” value is on record as “attenuated the increase”. In assay [6], the “Effect of kinase inhibitor on LM-021-upregulated kinase phosphorylation” value is “diminished the increase of p-CaMKII”; the “Effect of kinase inhibitor on LM-021 upregulation of p-CREB, pro-BDNF, m-BDNF, and BCL2” value is on record as “attenuated the upregulation”.

As for `N#CC(=C(/N)Sc1ccccc1N)/C(C#N)=C(/N)Sc1ccccc1N` [U0126], in assay [1], the “Effect of kinase inhibitor on LM-021-activated GFP levels” value is “attenuated the GFP levels”. In addition, the “Effect of kinase inhibitor … and branches” value in assay [2] was “counteracted these improvements”. Further, the “Effect of kinase inhibitor on LM-021-ameliorated neurite length and branch length” value in assay [3] was “reversed these effects”. The “Effect of kinase inhibitor on increased p-CREB and GFP protein levels” value in assay [4] was “significantly reduced”. Further, in assay [5], the “Effect of kinase inhibitor on LM-021-upregulated kinase phosphorylation” value is listed as “normalized p-ERK”; the “Effect of kinase inhibitor on LM-021 increase in p-CREB, pro-BDNF, m-BDNF, and BCL2” value is listed as “attenuated the increase”. In addition, in assay [6], the “Effect of kinase inhibitor on LM-021-upregulated kinase phosphorylation” value is “attenuated the rescue of p-ERK”; the “Effect of kinase inhibitor on LM-021 upregulation of p-CREB, pro-BDNF, m-BDNF, and BCL2” value is listed as “attenuated the upregulation”.
